Tests used:
mouse parietal bone = assay: Osteogenesis in mouse parietal bone with PGE2-containing CHP nanogel (width by 2-D μCT); assay type: in vivo; conditions: 3-week old ICR mouse, local administration onto parietal bone 5 times a week for 4 weeks, PGE2 0.6 μg/ml, FIG. 3
Description: PGE2-containing hydrophobized polysaccharide nanogel was administered to a mouse parietal bone to observe osteogenesis.
(§1) The PGE2-containing CHP prepared by the same manner as in Example 2 was locally administrated onto the parietal bone of a 3-week old ICR mouse 5 times a week for 4 weeks. […] of the prepared PGE2-containing CHP solution (PGE2 0.6 μg/ml) was administered for a dose. Evaluation was conducted for 4 groups of physiological saline, PGE2, CHP, PGE2-containing CHP (N=5). After 4 weeks of administration, the mice were sacrificed, and the parietal bones were collected, and the width of the parietal bone was measured by 2-D μCT. In order to study the effect on the bones of a whole body, the amount of cancellous bone of the femur was evaluated.

femur cancellous bone = assay: Effect on bones of the whole body: amount of cancellous bone of the femur; assay type: in vivo, ICR mouse; conditions: same mice, local parietal administration 5 times a week for 4 weeks, FIG. 4
Description: as §1

MC3T3E1 cells [1] = assay: Cell differentiation by alkaline phosphatase (ALP) activity in osteoblast cell line; assay type: cell-based; conditions: PGE2 10 μM, 24 hours, FIG. 5
Description: (§2) In order to understand the mechanism at the cellular level of the PGE2-containing CHP nanogel, the osteoblast cell line MC3T3E1 cell culture system was used to analyze the cell differentiation by alkaline phosphatase (ALP) activity and the cell growth by the MTT method.
(§3) MC3T3E1 cells were seeded 5×10^3 cells/well in a 96-well plate and cultured in the presence of […] at 37° C. for 1 day. These cells were supplied with the PGE2-containing CHP solution (PGE2 10 μM) prepared in the same manner as in Example 2 to get the same concentration, then cultured in the presence of […] at 37° C. for 24 hours, then collected by scraping, and dissolved in 0.05 ml of a lysis buffer. The alkaline phosphatase (ALP) activity was measured according to the published protocols. In addition, the MTT method was conducted according to the published protocols.

MC3T3E1 cells [2] = assay: Cell growth by the MTT method in osteoblast cell line; assay type: cell-based; conditions: PGE2 10 μM, 24 hours, FIG. 5
Description: as §2, §3

- amount of cancellous bone in the femur apart from the administration site (femur cancellous bone): increase
Compound: CCCCC[C@H](O)/C=C/[C@H]1[C@H](O)CC(=O)[C@@H]1C/C=C\CCCC(=O)O [PGE2, Prostaglandin E2]
- width of the parietal bone (mouse parietal bone): no change
- cellular differentiation (ALP activity) (MC3T3E1 cells [1]): increase
- cellular growth (MTT method) (MC3T3E1 cells [2]): increase
